Measurements as given in US20260102344A1, “METERED DOSE INHALERS AND SUSPENSION COMPOSITIONS” (Kindeva Drug Delivery L.P., priority 2021, published 2026).
Values after ≈ are worked out from the molar mass of the structure shown.

Experiments:
Format in all cases: physicochemical
[1] = Mometasone solubility in HFO-1234ze(E) (Example 10)
[2] = Saturated solubility, mometasone furoate in HFO-1234ze(E) (Example 11)
Protocol: Suspensions of micronized mometasone furoate were prepared in HFO-1234ze(E). […]. A second suspension included 0.5% ethanol by weight. A third suspension included 1% ethanol by weight. A fourth suspension included 2% ethanol by weight.
Devices were prepared by weighing mometasone furoate in FEP coated canisters fitted with a 50-μL valve, a Mk6s actuator, and dose counter. The valve was crimped on, and the propellant was pressure filled through the valve. The units were sonicated for 10 minutes to fully disperse the mometasone furoate. Through life dosing was tested for each suspension 3 units with the Mk6s actuator having 0.5-mm exit orifice and 0.8-mm jet length. Saturated solubility was also measured for each suspension. The results are shown in Example 10.

[3] = Delivered dose and particle size measurement, salbutamol sulfate in HFO-1234ze(E); details: HFO-1234ze(E) suspension 1.91 mg/mL, nominal 100 μg/actuation, 63-μL valve, 0.4 mm actuator
Protocol: A first suspension included no ethanol. […] A fifth suspension included 15% ethanol by weight. […] Each suspension was filled into FEP coated canisters, crimped with a 63-μL valve and tested with a […] actuator having an exit orifice diameter of 0.4 mm for testing. The fine particle mass (FPM), median mass aerodynamic diameter (MMAD), fine particle fraction (FPF), metered dose (ex-valve), and delivered dose (ex-act) were measured for each suspension.

[4] = Delivered dose and fine particle mass, salbutamol sulfate in HFO-1234ze(E) with 5.0% or 15% ethanol; details: HFO-1234ze(E) suspension 1.91 mg/mL, 63-μL APTAR, mean of triplicate
Protocol: Each suspension was filled into FEP coated canisters, crimped with a valve, and coupled to […] actuator for testing. Fine particle mass and delivered dose were measured for each suspension.

[5] = Saturated solubility of fluticasone propionate in HFO-1234ze(E) with ethanol; details: saturated solubility in HFO-1234ze(E), no additional excipients; for solubility: HFO-1234ze(E) propellant with ethanol, organic solvent or mixture, thermodynamic from solid
Protocol: The solubility of fluticasone propionate in each suspension was measured by content assay following filtration of the excess non-dissolved drug.

[6] = Fine particle fraction by Fast Screening Impactor (FSI), fluticasone propionate in HFO-1234ze(E) without ethanol; details: HFO-1234ze(E) suspension 2 mg/mL, no ethanol
Protocol: A suspension of micronized fluticasone propionate was prepared in HFO-1234ze(E) with no additional excipients, including ethanol. Each suspension included an amount of fluticasone propionate (2 mg/mL) to provide a nominal dose of […]. Each suspension was filled into FEP coated canisters and crimped with a metering valve and tested with a KINDEVA actuator.
When tested with KINDEVA actuators with exit orifice diameters of 0.3 mm, 0.22 mm, and 0.18 mm using a Fast Screening Impactor (FSI), it was observed that corresponding FPF of 35%, 43%, and 50% were achieved.

[7] = Aerodynamic particle size measurement, fluticasone propionate in HFO-1234ze(E); details: HFO-1234ze(E) suspension 2 mg/mL, 50-μL valve, 0.5 mm actuator
Protocol: Suspensions of micronized fluticasone propionate were prepared in HFO-1234ze(E). The nominal concentration of fluticasone propionate in each suspension was 2 mg/mL. A first suspension included 0% ethanol. A second suspension included 2% ethanol by weight. A third suspension included 5% ethanol by weight. A fourth suspension included 10% ethanol by weight.
Each suspension was filled into an FEP-coated canister and fitted with a 50-μL valve. The suspensions were sonicated for 10 minutes to disperse the fluticasone propionate. The suspensions were tested using a KINDEVA actuator with a 0.5 mm exit orifice diameter.
For each suspension, FPM, median mass aerodynamic diameter (MMAD), FPF, metered dose (ex-valve), and delivered dose (ex-actuator) were measured.

C[C@@H]1C[C@H]2[C@@H]3CCC4=CC(=O)C=C[C@]4(C)[C@@]3(Cl)[C@@H](O)C[C@]2(C)[C@@]1(OC(=O)c1ccco1)C(=O)CCl [mometasone furoate]
Mean mometasone solubility ([1]; ethanol 0% by weight): 0.8 µg/mL
Mean mometasone solubility ([1]; ethanol 1% by weight): 7.6 µg/mL
Saturated solubility ([2]; ethanol 0%): 0.8 µg/mL
Saturated solubility ([2]; ethanol 2%): 7.6 µg/mL

salbutamol sulfate
FPF (fine particle fraction) ([3]; ethanol 0% by weight): 57.5%
FPM (fine particle mass) ([3]; ethanol 0% by weight): 45.3 μg/act
MMAD (median mass aerodynamic diameter) ([3]; ethanol 0% by weight): 1.9 μm
FPF (fine particle fraction) ([3]; ethanol 2% by weight): 48.5%
FPM (fine particle mass) ([3]; ethanol 2% by weight): 45.9 μg/act
MMAD (median mass aerodynamic diameter) ([3]; ethanol 2% by weight): 2.0 μm
FPF (fine particle fraction) ([3]; ethanol 5% by weight): 39.1%
FPM (fine particle mass) ([3]; ethanol 5% by weight): 36.8 μg/act
MMAD (median mass aerodynamic diameter) ([3]; ethanol 5% by weight): 1.9 μm
FPF (fine particle fraction) ([3]; ethanol 10% by weight): 27.6%
FPM (fine particle mass) ([3]; ethanol 10% by weight): 25.4 μg/act
MMAD (median mass aerodynamic diameter) ([3]; ethanol 10% by weight): 2.0 μm
FPF (fine particle fraction) ([3]; ethanol 15% by weight): 19.6%
FPM (fine particle mass) ([3]; ethanol 15% by weight): 18.5 μg/act
MMAD (median mass aerodynamic diameter) ([3]; ethanol 15% by weight): 2.0 μm
Fine particle fraction ([4]; ethanol 5.0%): 38%
Fine particle fraction ([4]; ethanol 15%): 20%

CCC(=O)O[C@]1(C(=O)SCF)[C@H](C)C[C@H]2[C@@H]3C[C@H](F)C4=CC(=O)C=C[C@]4(C)[C@@]3(F)[C@@H](O)C[C@@]21C [fluticasone propionate]
solubility ([5]; ethanol 0% by weight): 3.2 µg/mL (≈ 6.39 µM)
solubility ([5]; ethanol 2% by weight): 30.3 µg/mL (≈ 60.5 µM)
solubility ([5]; ethanol 5% by weight): 135 µg/mL (≈ 269 µM)
Mean fluticasone propionate solubility ([5]; ethanol 1% by weight): 12.4 µg/mL
Mean fluticasone propionate solubility ([5]; ethanol 10% by weight): 367.5 µg/mL
FPF ([6]; actuator exit orifice 0.18 mm): 50%
FPF ([6]; actuator exit orifice 0.22 mm): 43%
FPF ([6]; actuator exit orifice 0.3 mm): 35%
FPF ([7]; ethanol 0% by weight): 60.6%
FPM ([7]; ethanol 0% by weight): 5.3 μg/actuation
MMAD ([7]; ethanol 0% by weight): 5.0 μm
FPF ([7]; ethanol 2% by weight): 43.8%
FPM ([7]; ethanol 2% by weight): 30.0 μg/actuation
MMAD ([7]; ethanol 2% by weight): 5.4 μm
FPF ([7]; ethanol 5% by weight): 28.9%
FPM ([7]; ethanol 5% by weight): 27.9 μg/actuation
MMAD ([7]; ethanol 5% by weight): 2.4 μm
FPF ([7]; ethanol 10% by weight): 19.6%
FPM ([7]; ethanol 10% by weight): 18.7 μg/actuation
MMAD ([7]; ethanol 10% by weight): 2.1 μm
